From patent publication US20080214675A1, “Hydroxybenzoic Acid Amides and the Use Thereof For Masking Bitter Taste” (SYMRISE GMBH & CO. KG, priority 2004, published 2008)
Where a name gives a salt, the structure may show the parent alone.

Tests used:
[1] = examined in the context of various sweeteners; cited from earlier work
[2] = Bitterness reduction in a bitter principle solution (expert panel rating); assay type: in vivo; settings: for % reduction in bitterness impression / Testers positive (number of testers who could detect a masking effect) / Bitterness impression (1-10) with: 500 ppm caffeine; for Bitterness impression (1-10) with: error = 95% confidence interval
Method: To quantify the reduction in the bitterness impression, the bitterness of a 500 ppm caffeine or salicin solution and a sample containing 500 ppm of caffeine or salicin and a varying amount of the exemplary compound was determined by a group of experts (rating 0 [not bitter] to 10 [extremely bitter]). The evaluation was made as a calculation of the reduction (in %) of the bitterness impression from the average values for the ratings of the caffeine or salicin solution and the solutions containing caffeine or salicin and the exemplary compound. 2,4-Dihydroxybenzoic acid (2,4-DHB) from U.S. Pat. No. 5,643,941 was used as a comparison.

[3] = Strengthening the sweetness of a sugar solution (expert panel rating); assay type: in vivo; settings: 5% sucrose; for Sweetness impression (1-10) with: error = standard deviation
Method: To quantify the strengthening of the sweetness impression, the sweetness of a 5% sucrose solution and a sample containing […] and an amount of the exemplary compound was determined by a group of experts (rating 0 [not sweet] to 10 [extremely sweet]). The evaluation was made as a calculation of the strengthening (in %) of the sweetness impression from the average values for the ratings of the sucrose solution and the solutions containing sucrose and the exemplary compound. Vanillin was used as a comparison as a typical aromatic substance described as sweet.

[4] = Strengthening the sweetness of a yogurt (expert panel rating); assay type: in vivo
Method: To quantify the strengthening of the sweetness impression, the sweetness of a low-fat (0.1%) commercial yogurt (Optiwell) containing 5% sucrose and of a sample containing […] and an amount of the exemplary compound was determined by a group of experts (rating 0 [not sweet] to 10 [extremely sweet]). The evaluation was made as a calculation of the strengthening (in %) of the sweetness impression from the average values for the ratings of the yogurt containing sucrose and the yogurt containing sucrose and the exemplary compound.

[5] = 200 ppm substance, 5% sucrose, low-fat yogurt

Compound | % reduction in bitterness impression ([2]; 100 ppm substance) | Testers positive (number of testers who could detect a masking effect) ([2]; 100 ppm substance) | Bitterness impression (1-10) with ([2]; 100 ppm substance) | further results
COc1ccc(CNC(=O)c2c(O)cc(O)cc2O)cc1O [2,4,6-trihydroxybenzoic acid-N-(3-hydroxy-4-methoxybenzyl)amide] | – | – | – | taste [1]: tasteless
O=C(O)c1ccc(O)cc1O [2,4-DHB, 2,4-Dihydroxybenzoic acid, reference compound] | 3% | 9 | 5.0 ± 1.0 | –
COc1cc(CNC(=O)c2ccc(O)cc2O)ccc1O [Example 1, 2,4-dihydroxybenzoic acid-N-(4-hydroxy-3-methoxybenzyl)amide] | – | – | – | % reduction in bitterness impression ([2]; 20 ppm substance): 29%, p < 0.05; Testers positive (number of testers who could detect a masking effect) ([2]; 20 ppm substance): 11; Bitterness impression (1-10) with ([2]; 20 ppm substance): 4.5 ± 0.6; % strengthening of sweetness impression ([3]; 100 ppm substance): 7.2%; Testers positive (number of testers who could detect a strengthening effect) ([3]; 100 ppm substance): 7; Sweetness impression (1-10) with ([3]; 100 ppm substance): 5.6 ± 1.7; % strengthening of sweetness impression [4, 5]: 26.5%; Testers positive (number of testers who could detect a strengthening effect) [4, 5]: 12; Sweetness impression (1-10) with ([4]; 200 ppm substance, 5% sucrose, low-fat yogurt, error = standard deviation): 5.4 ± 1.5; descriptors of the yogurt ([4]; yogurt containing the compound): more fullness, less acidic, soft, creamy; preference of the yogurt ([4]; yogurt containing the compound vs yogurt with sucrose only): preferred
COc1cc(CNC(=O)c2c(O)cc(O)cc2O)ccc1O [Example 2, 2,4,6-Trihydroxybenzoic acid-N-(4-hydroxy-3-methoxybenzyl)amide] | 24%, p < 0.05 | 8 | 5.1 ± 0.9 | –
COc1cc(CNC(=O)c2ccccc2O)ccc1O [Example 3, 2-Hydroxybenzoic acid-N-(4-hydroxy-3-methoxybenzyl)amide] | 23%, p < 0.05 | 12 | 4.1 ± 0.9 | –
COc1cc(CNC(=O)c2ccc(O)cc2)ccc1O [Example 4, 4-Hydroxybenzoic acid-N-(4-hydroxy-3-methoxybenzyl)amide] | 26%, p < 0.05 | 9 | 4.5 ± 0.5 | –
COc1cc(CNC(=O)c2ccc(O)cc2O)ccc1O [Example 5, 2,4-Dihydroxybenzoic acid-N-4-hydroxy-3-methoxybenzylamide monosodium salt] | 32%, p < 0.05 | 13 | 4.1 ± 1.0 | –
COc1cc(CCNC(=O)c2ccc(O)cc2O)ccc1O [Example 6, 2,4-Dihydroxybenzoic acid-N-2-(4-hydroxy-3-methoxyphenyl)ethylamide] | 20%, p < 0.05 | 9 | 3.7 ± 0.8 | –
COc1ccc(CNC(=O)c2ccc(O)cc2O)cc1O [Example 9, 2,4-Dihydroxybenzoic acid-N-3-hydroxy-4-methoxybenzylamide, reference compound] | 11% | – | 3.9 ± 0.8 | change in the bitterness impression (bitterness-masking effect) ([2]; application example 1): No statistically significant change
COc1cc(C=O)ccc1O [vanillin, Vanillin, reference compound] | – | – | – | % strengthening of sweetness impression ([3]; 600 ppb substance): −3%; Testers positive (number of testers who could detect a strengthening effect) ([3]; 600 ppb substance): 5; Sweetness impression (1-10) with ([3]; 600 ppb substance): 6.0 ± 1.1
